Results published in paper PMC9706563, “Development of Macrocyclic PRMT5–Adaptor Protein Interaction Inhibitors” (Journal of Medicinal Chemistry, 2022).
Numbered stars: 1 amine (or outer) side, 2 acyl side, 3 side chain; on linkers, the order of the positions; unused ones are H or OH. Bridge positions count the residues as written; N and C are the ends. Square brackets hold non-standard residues; d marks the D form. Peptide text beside a SMILES is read from it. * marks the point of attachment. FITC = O=C1OC2(c3ccc(O)cc3Oc3cc(O)ccc32)c2ccc(NC(=S)*)cc21; dNva(5-ylidene) = O=C([C@@H](CCC=[*:3])N[*:1])[*:2]; NMeF = CN[C@@H](Cc1ccccc1)C(=O)O; dAllylGly = C=CC[C@@H](N)C(=O)O; NMeD = CN[C@@H](CC(=O)O)C(=O)O; NMeA = CN[C@@H](C)C(=O)O; Sar = CNCC(=O)O

Target: T1, PRMT5-MEP50 (Homo sapiens, UniProt O14744)
T1 construct: The compounds were tested by means of FP with the full-length PRMT5-MEP50 complex; made in house
Test: Direct binding fluorescence polarization (FP) assay of FITC-labeled peptides
Conditions: FITC-labeled peptide 1 nM, PRMT5-MEP50 titrated, read-out: KD
Protocol: The assay was performed in a buffer of 50 mM 4-(2-hydroxyethyl)-1-piperazineethanesulfonic acid (HEPES), 250 mM NaCl, 1 mM tris(2-carboxyethyl)phosphine (TCEP), and 0.01% (v/v) Tween 20, pH 8.0, in black, 384-well plates with a total volume of 10 μL per well. […] The plates were incubated at room temperature for 1 to 2 h and analyzed on a plate reader using 485 nm excitation and 535 nm emission wavelength. The assay was performed in triplicate.

T1 sequence (O14744 whole entry): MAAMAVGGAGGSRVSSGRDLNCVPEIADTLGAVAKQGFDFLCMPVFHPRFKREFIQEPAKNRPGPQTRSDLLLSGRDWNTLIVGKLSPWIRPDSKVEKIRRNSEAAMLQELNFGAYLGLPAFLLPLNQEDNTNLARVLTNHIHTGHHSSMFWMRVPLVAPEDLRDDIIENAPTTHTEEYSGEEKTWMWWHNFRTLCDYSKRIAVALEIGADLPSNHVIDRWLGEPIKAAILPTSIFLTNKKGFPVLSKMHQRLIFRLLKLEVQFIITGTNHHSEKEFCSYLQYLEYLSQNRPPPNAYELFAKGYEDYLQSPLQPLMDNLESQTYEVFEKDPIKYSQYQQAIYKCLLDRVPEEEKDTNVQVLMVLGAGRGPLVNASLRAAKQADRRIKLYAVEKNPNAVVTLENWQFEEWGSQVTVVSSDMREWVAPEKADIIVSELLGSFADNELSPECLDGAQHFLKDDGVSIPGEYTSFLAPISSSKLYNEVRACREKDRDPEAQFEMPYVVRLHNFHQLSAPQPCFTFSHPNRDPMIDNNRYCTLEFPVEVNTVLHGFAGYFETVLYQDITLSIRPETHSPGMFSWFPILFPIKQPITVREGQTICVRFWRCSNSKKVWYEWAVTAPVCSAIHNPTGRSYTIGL
T1 sequence (Q9BQA1 whole entry partner): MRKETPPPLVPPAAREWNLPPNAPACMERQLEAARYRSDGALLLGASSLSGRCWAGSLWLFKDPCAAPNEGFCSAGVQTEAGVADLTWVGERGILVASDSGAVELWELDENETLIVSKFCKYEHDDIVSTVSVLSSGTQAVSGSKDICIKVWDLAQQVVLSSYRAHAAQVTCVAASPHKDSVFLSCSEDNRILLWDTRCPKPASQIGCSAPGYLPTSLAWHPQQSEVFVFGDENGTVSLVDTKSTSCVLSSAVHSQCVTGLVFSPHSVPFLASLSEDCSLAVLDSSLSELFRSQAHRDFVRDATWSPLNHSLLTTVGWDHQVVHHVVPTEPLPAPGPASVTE

Compound	Kd [nM]
CC(=O)N[C@H](C(=O)N1CCC[C@H]1C(=O)NC1CC=CCC[C@@H](C(=O)N[C@@H](CC(=O)O)C(=O)N[C@@H](C)C(=O)N[C@@H](CC(=O)O)C(=O)N[C@@H](CCCCNC(=S)Nc2ccc3c(c2)C(=O)OC32c3ccc(O)cc3Oc3cc(O)ccc32)C(N)=O)NC(=O)[C@H](Cc2ccccc2)NC(=O)[C@H](CCC(N)=O)NC1=O)C(C)C (stereo partly shown) [Compound 18]	352 ± 49
CC(C)[C@H](NC(=O)COCCOCCNC(=S)Nc1ccc2c(c1)C(=O)OC21c2ccc(O)cc2Oc2cc(O)ccc21)C(=O)N1CCC[C@H]1C(=O)NCC(=O)N[C@@H](CCC(N)=O)C(=O)N[C@@H](Cc1ccccc1)C(=O)N[C@@H](CC(=O)O)C(=O)N[C@@H](CC(=O)O)C(=O)N[C@@H](C)C(=O)N[C@@H](CC(=O)O)C(N)=O [Compound 28] (HELM PEPTIDE1{[O=C1OC2(c3ccc(O)cc3Oc3cc(O)ccc32)c2ccc(NC(=S)[*:2])cc21].[O=C(COCCOCCN[*:1])[*:2]].V.P.G.Q.F.D.D.A.D.[am]}$$$$V2.0)	905 ± 104
CC(=O)N[C@H](C(=O)N1CCC[C@H]1C(=O)NCC(=O)N[C@@H](CCC(N)=O)C(=O)N[C@@H](Cc1ccccc1)C(=O)N[C@@H](CC(=O)O)C(=O)N[C@@H](CC(=O)O)C(=O)N[C@@H](C)C(=O)N[C@@H](CC(=O)O)C(=O)N[C@@H](CCCCNC(=S)Nc1ccc2c(c1)C(=O)OC21c2ccc(O)cc2Oc2cc(O)ccc21)C(N)=O)C(C)C [Compound 29] (Ac-VPGQFDDADK(FITC)-NH2)	670 ± 187
CC(=O)N[C@H](C(=O)N1CCC[C@H]1C(=O)NCC(=O)N[C@@H](CCC(N)=O)C(=O)N[C@@H](Cc1ccccc1)C(=O)N[C@@H](CC(=O)O)C(=O)N[C@@H](CC(=O)O)C(=O)N[C@@H](C)C(=O)N(C)[C@@H](CC(=O)O)C(=O)N[C@@H](CCCCNC(=S)Nc1ccc2c(c1)C(=O)OC21c2ccc(O)cc2Oc2cc(O)ccc21)C(N)=O)C(C)C [Compound 44] (Ac-VPGQFDDA[NMeD]K(FITC)-NH2)	600 ± 100

Same assay, conditions: supplementary CSV, read-out: PRMT5-MEP50 Kd

Compound	Kd [nM]
CC(C)[C@H](NC(=O)[C@H](CCCNC(=N)N)NC(=O)[C@H](CO)NC(=O)COCCOCCNC(=S)Nc1ccc2c(c1)C(=O)OC21c2ccc(O)cc2Oc2cc(O)ccc21)C(=O)N[C@H](C(=O)N1CCC[C@H]1C(=O)N[C@@H]1CCNC(=O)CC[C@H](C(=O)N[C@@H](CC(=O)O)C(=O)N[C@@H](C)C(=O)N[C@@H](CC(=O)O)C(N)=O)NC(=O)[C@H](Cc2ccccc2)NC(=O)[C@H](CCC(N)=O)NC1=O)C(C)C [Compound 12]	> 2000
CC(C)[C@H](NC(=O)[C@H](CCCNC(=N)N)NC(=O)[C@H](CO)NC(=O)COCCOCCNC(=S)Nc1ccc2c(c1)C(=O)OC21c2ccc(O)cc2Oc2cc(O)ccc21)C(=O)N[C@H](C(=O)N1CCC[C@H]1C(=O)N[C@@H]1CCCC[C@H](C(=O)N[C@@H](CC(=O)O)C(=O)N[C@@H](C)C(=O)N[C@@H](CC(=O)O)C(N)=O)NC(=O)[C@H](Cc2ccccc2)NC(=O)[C@H](CCC(N)=O)NC1=O)C(C)C [Compound 16]	> 2000
CC(=O)N[C@H](C(=O)N1CCC[C@H]1C(=O)N[C@@H]1CC=CCC[C@H](C(=O)N[C@@H](CC(=O)O)C(=O)N[C@@H](C)C(=O)N[C@@H](CC(=O)O)C(=O)N[C@@H](CCCCNC(=S)Nc2ccc3c(c2)C(=O)OC32c3ccc(O)cc3Oc3cc(O)ccc32)C(N)=O)NC(=O)[C@H](Cc2ccccc2)NC(=O)[C@H](CCC(N)=O)NC1=O)C(C)C [Compound 23]	> 2000
CC(=O)N[C@H](C(=O)N1CCC[C@H]1C(=O)N[C@@H]1CCC=CC[C@H](C(=O)N[C@@H](CC(=O)O)C(=O)N[C@@H](C)C(=O)N[C@@H](CC(=O)O)C(=O)N[C@@H](CCCCNC(=S)Nc2ccc3c(c2)C(=O)OC32c3ccc(O)cc3Oc3cc(O)ccc32)C(N)=O)NC(=O)[C@H](Cc2ccccc2)NC(=O)[C@H](CCC(N)=O)NC1=O)C(C)C [Compound 24] (Ac-VP[dNva(5-ylidene)]QF[dAllylGly]DADK(FITC)-NH2; staple 3-6)	> 2000
CC(=O)N[C@H](C(=O)N1CCC[C@H]1C(=O)N[C@@H]1CCCCC[C@H](C(=O)N[C@@H](CC(=O)O)C(=O)N[C@@H](C)C(=O)N[C@@H](CC(=O)O)C(=O)N[C@@H](CCCCNC(=S)Nc2ccc3c(c2)C(=O)OC32c3ccc(O)cc3Oc3cc(O)ccc32)C(N)=O)NC(=O)[C@H](Cc2ccccc2)NC(=O)[C@H](CCC(N)=O)NC1=O)C(C)C [Compound 26]	> 2000
CC(=O)N[C@H](C(=O)N1CCC[C@H]1C(=O)N[C@@H]1CCCCCC[C@H](C(=O)N[C@@H](CC(=O)O)C(=O)N[C@@H](C)C(=O)N[C@@H](CC(=O)O)C(=O)N[C@@H](CCCCNC(=S)Nc2ccc3c(c2)C(=O)OC32c3ccc(O)cc3Oc3cc(O)ccc32)C(N)=O)NC(=O)[C@H](Cc2ccccc2)NC(=O)[C@H](CCC(N)=O)NC1=O)C(C)C [Compound 27]	> 2000
CC(=O)N[C@H](C(=O)N1CCC[C@H]1C(=O)NCC(=O)N[C@@H](CCC(N)=O)C(=O)N[C@@H](Cc1ccccc1)C(=O)N[C@@H](CC(=O)O)C(=O)N[C@@H](CC(=O)O)C(=O)N[C@@H](C)C(=O)N[C@@H](CCC(=O)O)C(=O)N[C@@H](CCCCNC(=S)Nc1ccc2c(c1)C(=O)OC21c2ccc(O)cc2Oc2cc(O)ccc21)C(N)=O)C(C)C [Compound 33] (Ac-VPGQFDDAEK(FITC)-NH2)	531 ± 23
CC(=O)N[C@H](C(=O)N1CCC[C@H]1C(=O)NCC(=O)N[C@@H](CCC(N)=O)C(=O)N[C@@H](Cc1ccccc1)C(=O)N[C@@H](CC(=O)O)C(=O)N[C@@H](CC(=O)O)C(=O)N[C@@H](C)C(=O)N(C)[C@@H](CC(=O)O)C(=O)N[C@@H](CCCCNC(=S)Nc1ccc2c(c1)C(=O)OC21c2ccc(O)cc2Oc2cc(O)ccc21)C(N)=O)C(C)C [Compound 44] (Ac-VPGQFDDA[NMeD]K(FITC)-NH2)	587 ± 142
CC(=O)N[C@H](C(=O)N1CCC[C@H]1C(=O)NCC(=O)N[C@@H](CCC(N)=O)C(=O)N[C@@H](Cc1ccccc1)C(=O)N[C@@H](CC(=O)O)C(=O)N[C@@H](CC(=O)O)C(=O)N(C)[C@@H](C)C(=O)N[C@@H](CC(=O)O)C(=O)N[C@@H](CCCCNC(=S)Nc1ccc2c(c1)C(=O)OC21c2ccc(O)cc2Oc2cc(O)ccc21)C(N)=O)C(C)C [Compound 45, Ac-VPGQFDD-(N-Me)A-DK(Fitc)-NH2] (Ac-VPGQFDD[NMeA]DK(FITC)-NH2)	> 2000
CC(=O)N[C@H](C(=O)N1CCC[C@H]1C(=O)NCC(=O)N[C@@H](CCC(N)=O)C(=O)N[C@@H](Cc1ccccc1)C(=O)N[C@@H](CC(=O)O)C(=O)N(C)[C@@H](CC(=O)O)C(=O)N[C@@H](C)C(=O)N[C@@H](CC(=O)O)C(=O)N[C@@H](CCCCNC(=S)Nc1ccc2c(c1)C(=O)OC21c2ccc(O)cc2Oc2cc(O)ccc21)C(N)=O)C(C)C [Compound 46, Ac-VPGQFD-(N-Me)D-ADK(Fitc)-NH2] (Ac-VPGQFD[NMeD]ADK(FITC)-NH2)	> 2000
CC(=O)N[C@H](C(=O)N1CCC[C@H]1C(=O)NCC(=O)N[C@@H](CCC(N)=O)C(=O)N(C)[C@@H](Cc1ccccc1)C(=O)N[C@@H](CC(=O)O)C(=O)N[C@@H](CC(=O)O)C(=O)N[C@@H](C)C(=O)N[C@@H](CC(=O)O)C(=O)N[C@@H](CCCCNC(=S)Nc1ccc2c(c1)C(=O)OC21c2ccc(O)cc2Oc2cc(O)ccc21)C(N)=O)C(C)C [Compound 47, Ac-VPGQ-(N-Me)F-DDADK(Fitc)-NH2] (Ac-VPGQ[NMeF]DDADK(FITC)-NH2)	> 2000
CC(=O)N[C@H](C(=O)N1CCC[C@H]1C(=O)N(C)CC(=O)N[C@@H](CCC(N)=O)C(=O)N[C@@H](Cc1ccccc1)C(=O)N[C@@H](CC(=O)O)C(=O)N[C@@H](CC(=O)O)C(=O)N[C@@H](C)C(=O)N[C@@H](CC(=O)O)C(=O)N[C@@H](CCCCNC(=S)Nc1ccc2c(c1)C(=O)OC21c2ccc(O)cc2Oc2cc(O)ccc21)C(N)=O)C(C)C [Compound 48, Ac-VP-(N-Me)G-QFDDADK(Fitc)-NH2] (Ac-VP[Sar]QFDDADK(FITC)-NH2)	> 2000
